Assays:
Assay in all cases: Test B preemergence/postemergence greenhouse plant response rating 0 to 10
barley = type: in vivo, Hordeum vulgare; settings: for Plant response rating, Barley: 0 to 10 scale
Outline: (§1)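 Planted seeds are treated preemergence with compound dissolved in a non-phytotoxic solvent, while postemergence applications go onto plants of two to eighteen cm. Plants stay in the greenhouse twelve to sixteen days and are then rated visually relative to controls.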

barnyardgrass = type: in vivo, Echinochloa crus-galli; settings: for Plant response rating, Barnyardgrass: 0 to 10 scale
Outline: as §1

blackgrass = type: in vivo, Alopecurus myosuroides; settings: for Plant response rating, Blackgrass: 0 to 10 scale
Outline: as §1

chickweed = type: in vivo, Stellaria media; settings: for Plant response rating, Chickweed: 0 to 10 scale
Outline: as §1

corn = type: in vivo, Zea mays; settings: for Plant response rating, Corn: 0 to 10 scale
Outline: as §1

sorghum = type: in vivo, Sorghum bicolor; settings: 0 to 10 scale
Outline: as §1

sugar beet = type: in vivo, Beta vulgaris; settings: 0 to 10 scale
Outline: as §1

velvetleaf = type: in vivo, Abutilon theophrasti; settings: 0 to 10 scale
Outline: as §1

purple nutsedge = type: in vivo, Cyperus rotundus; settings: 0 to 10 scale
Outline: as §1

Compound	Plant response rating (0 to 10 scale), Barley (barley; POSTEMERGENCE, Rate 50 g/ha)	Plant response rating, Barley (barley; POSTEMERGENCE, Rate 200 g/ha)	Plant response rating, Barley (barley; PREEMERGENCE, Rate 50 g/ha)	Plant response rating, Barley (barley; Rate 200 g/ha, PREEMERGENCE)	Plant response rating (0 to 10 scale), Barnyardgrass (barnyardgrass; POSTEMERGENCE, Rate 50 g/ha)	Plant response rating, Barnyardgrass (barnyardgrass; POSTEMERGENCE, Rate 200 g/ha)	Plant response rating, Barnyardgrass (barnyardgrass; PREEMERGENCE, Rate 50 g/ha)	Plant response rating, Barnyardgrass (barnyardgrass; Rate 200 g/ha, PREEMERGENCE)	Plant response rating (0 to 10 scale), Blackgrass (blackgrass; POSTEMERGENCE, Rate 50 g/ha)	Plant response rating, Blackgrass (blackgrass; POSTEMERGENCE, Rate 200 g/ha)	Plant response rating, Blackgrass (blackgrass; PREEMERGENCE, Rate 50 g/ha)	Plant response rating, Blackgrass (blackgrass; Rate 200 g/ha, PREEMERGENCE)	Plant response rating, Chickweed (chickweed; PREEMERGENCE, Rate 50 g/ha)	Plant response rating, Chickweed (chickweed; Rate 200 g/ha, PREEMERGENCE)	Plant response rating (0 to 10 scale), Corn (corn; POSTEMERGENCE, Rate 50 g/ha)	Plant response rating, Corn (corn; POSTEMERGENCE, Rate 200 g/ha)	Plant response rating, Corn (corn; PREEMERGENCE, Rate 50 g/ha)	Plant response rating, Corn (corn; Rate 200 g/ha, PREEMERGENCE)	Plant response rating, Sorghum (sorghum; POSTEMERGENCE, Rate 50 g/ha)	Plant response rating, Sorghum (sorghum; POSTEMERGENCE, Rate 200 g/ha)	further results
CCCOc1cc(-c2nn3c(c2Cl)CCCC3)c(F)cc1Cl [Compound 23]	3	3	0	0	7	9	4	6	6	6	6	7	0	6	4	6	0	6	4	6	Plant response rating, Chickweed (chickweed; POSTEMERGENCE, Rate 200 g/ha): 9; Plant response rating, Sorghum (sorghum; PREEMERGENCE, Rate 50 g/ha): 0; Plant response rating, Sorghum (sorghum; Rate 200 g/ha, PREEMERGENCE): 2; Plant response rating, Sugar beet (sugar beet; POSTEMERGENCE, Rate 50 g/ha): 10; Plant response rating, Sugar beet (sugar beet; POSTEMERGENCE, Rate 200 g/ha): 10; Plant response rating, Sugar beet (sugar beet; PREEMERGENCE, Rate 50 g/ha): 9; Plant response rating, Sugar beet (sugar beet; Rate 200 g/ha, PREEMERGENCE): 10; Plant response rating, Velvetleaf (velvetleaf; POSTEMERGENCE, Rate 50 g/ha): 9; Plant response rating, Velvetleaf (velvetleaf; POSTEMERGENCE, Rate 200 g/ha): 10; Plant response rating, Velvetleaf (velvetleaf; PREEMERGENCE, Rate 50 g/ha): 1; Plant response rating, Velvetleaf (velvetleaf; Rate 200 g/ha, PREEMERGENCE): 10; Plant response rating, Nutsedge (purple nutsedge; POSTEMERGENCE, Rate 50 g/ha): 2; Plant response rating, Nutsedge (purple nutsedge; POSTEMERGENCE, Rate 200 g/ha): 3; Plant response rating, Nutsedge (purple nutsedge; PREEMERGENCE, Rate 50 g/ha): 0; Plant response rating, Nutsedge (purple nutsedge; Rate 200 g/ha, PREEMERGENCE): 0
Fc1cc(Cl)c(OC2CCCC2)cc1-c1nn2c(c1Cl)CCCC2 [Compound 24]	4	4	0	0	4	6	1	4	2	6	2	8	0	3	5	5	0	1	5	6	Plant response rating (0 to 10 scale), Chickweed (chickweed; POSTEMERGENCE, Rate 50 g/ha): 8; Plant response rating, Chickweed (chickweed; POSTEMERGENCE, Rate 200 g/ha): 9; Plant response rating, Sorghum (sorghum; PREEMERGENCE, Rate 50 g/ha): 0; Plant response rating, Sorghum (sorghum; Rate 200 g/ha, PREEMERGENCE): 1; Plant response rating, Sugar beet (sugar beet; POSTEMERGENCE, Rate 50 g/ha): 10; Plant response rating, Sugar beet (sugar beet; POSTEMERGENCE, Rate 200 g/ha): 10; Plant response rating, Sugar beet (sugar beet; PREEMERGENCE, Rate 50 g/ha): 9; Plant response rating, Sugar beet (sugar beet; Rate 200 g/ha, PREEMERGENCE): 9; Plant response rating, Velvetleaf (velvetleaf; POSTEMERGENCE, Rate 50 g/ha): 10; Plant response rating, Velvetleaf (velvetleaf; POSTEMERGENCE, Rate 200 g/ha): 10; Plant response rating, Velvetleaf (velvetleaf; PREEMERGENCE, Rate 50 g/ha): 1; Plant response rating, Velvetleaf (velvetleaf; Rate 200 g/ha, PREEMERGENCE): 9; Plant response rating, Nutsedge (purple nutsedge; POSTEMERGENCE, Rate 50 g/ha): 3; Plant response rating, Nutsedge (purple nutsedge; POSTEMERGENCE, Rate 200 g/ha): 4; Plant response rating, Nutsedge (purple nutsedge; PREEMERGENCE, Rate 50 g/ha): 0; Plant response rating, Nutsedge (purple nutsedge; Rate 200 g/ha, PREEMERGENCE): 0
CCS(=O)(=O)Oc1cc(-c2nn3c(c2Cl)CCCC3)c(F)cc1Cl [Compound 25]	4	5	0	0	3	5	2	6	2	2	0	3	0	9	3	6	0	0	4	5	Plant response rating, Sorghum (sorghum; PREEMERGENCE, Rate 50 g/ha): 0; Plant response rating, Sorghum (sorghum; Rate 200 g/ha, PREEMERGENCE): 2; Plant response rating, Sugar beet (sugar beet; POSTEMERGENCE, Rate 50 g/ha): 10; Plant response rating, Sugar beet (sugar beet; POSTEMERGENCE, Rate 200 g/ha): 10; Plant response rating, Sugar beet (sugar beet; PREEMERGENCE, Rate 50 g/ha): 7; Plant response rating, Sugar beet (sugar beet; Rate 200 g/ha, PREEMERGENCE): 10; Plant response rating, Velvetleaf (velvetleaf; POSTEMERGENCE, Rate 50 g/ha): 8; Plant response rating, Velvetleaf (velvetleaf; POSTEMERGENCE, Rate 200 g/ha): 10; Plant response rating, Velvetleaf (velvetleaf; PREEMERGENCE, Rate 50 g/ha): 1; Plant response rating, Velvetleaf (velvetleaf; Rate 200 g/ha, PREEMERGENCE): 10; Plant response rating, Nutsedge (purple nutsedge; POSTEMERGENCE, Rate 50 g/ha): 2; Plant response rating, Nutsedge (purple nutsedge; POSTEMERGENCE, Rate 200 g/ha): 8; Plant response rating, Nutsedge (purple nutsedge; PREEMERGENCE, Rate 50 g/ha): 0; Plant response rating, Nutsedge (purple nutsedge; Rate 200 g/ha, PREEMERGENCE): 0

Source: patent US6358885B1, “Substituted phenylheterocyclic herbicides” (Mississippi State University, priority 1992, dated 2002)
